Data as given in PubChem BioAssay (NCI).
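A five-concentration, 48-hour dose response in 96-well plates underlies each endpoint, interpolated linearly between surrounding concentrations. TGI: total growth inhibition.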

Assays:
Assay in all cases: growth of human tumour cells (NCI), 48 h
MOLT-4 leukemia = tested on: MOLT-4 leukemia
SF-539 CNS = tested on: SF-539 CNS
NCI-H522 lung = tested on: NCI-H522 lung
MDA-N = tested on: MDA-N
SN12C renal = tested on: SN12C renal
OVCAR-3 ovarian = tested on: OVCAR-3 ovarian
HCC-2998 colon = tested on: HCC-2998 colon
IGROV1 ovarian = tested on: IGROV1 ovarian
HCT-116 colon = tested on: HCT-116 colon
SK-MEL-28 melanoma = tested on: SK-MEL-28 melanoma
A549 NSCLC = tested on: A549 NSCLC
HCT-15 colon = tested on: HCT-15 colon
OVCAR-8 ovarian = tested on: OVCAR-8 ovarian
KM12 colon = tested on: KM12 colon
DU-145 prostate = tested on: DU-145 prostate
NCI/ADR-RES ovarian = tested on: NCI/ADR-RES ovarian
A498 renal = tested on: A498 renal
SK-OV-3 ovarian = tested on: SK-OV-3 ovarian
ACHN renal = tested on: ACHN renal
BT-549 breast = tested on: BT-549 breast
UACC-62 melanoma = tested on: UACC-62 melanoma
MDA-MB-231 breast = tested on: MDA-MB-231 breast
HOP-62 NSCLC = tested on: HOP-62 NSCLC
SF-295 CNS = tested on: SF-295 CNS
SK-MEL-5 melanoma = tested on: SK-MEL-5 melanoma
NCI-H23 lung = tested on: NCI-H23 lung
UACC-257 melanoma = tested on: UACC-257 melanoma
CCRF-CEM leukemia = tested on: CCRF-CEM leukemia
SNB-75 CNS = tested on: SNB-75 CNS
K-562 leukemia = tested on: K-562 leukemia
SF-268 CNS = tested on: SF-268 CNS
RPMI-8226 leukemia = tested on: RPMI-8226 leukemia
NCI-H226 lung = tested on: NCI-H226 lung
HL-60(TB) leukemia = tested on: HL-60(TB) leukemia
OVCAR-5 ovarian = tested on: OVCAR-5 ovarian
HT29 colon = tested on: HT29 colon
T-47D breast = tested on: T-47D breast
PC-3 prostate = tested on: PC-3 prostate
EKVX NSCLC = tested on: EKVX NSCLC
TK-10 renal = tested on: TK-10 renal
HOP-92 NSCLC = tested on: HOP-92 NSCLC
HS 578T breast = tested on: HS 578T breast
OVCAR-4 ovarian = tested on: OVCAR-4 ovarian
MALME-3M melanoma = tested on: MALME-3M melanoma
SR leukemia = tested on: SR leukemia
UO-31 renal = tested on: UO-31 renal
CAKI-1 renal = tested on: CAKI-1 renal
786-0 renal = tested on: 786-0 renal
M14 melanoma = tested on: M14 melanoma
MDA-MB-435 = tested on: MDA-MB-435
SNB-19 CNS = tested on: SNB-19 CNS
U251 CNS = tested on: U251 CNS
SW-620 colon = tested on: SW-620 colon
SK-MEL-2 melanoma = tested on: SK-MEL-2 melanoma
COLO 205 colon = tested on: COLO 205 colon
NCI-H460 lung = tested on: NCI-H460 lung
MCF7 breast = tested on: MCF7 breast

Q: How did the TGI (MOLT-4 leukemia) turn out when `CCCCCCCCCCCC1N=C(N)NC(CCCO)=C1C(=O)OC` (stereo not drawn) was run?
A: 4.75 µM

Q: And the TGI (SF-539 CNS)?
A: 33.2 µM

Q: What about the TGI (NCI-H522 lung) of the same compound?
A: 3.72 µM

Q: What about the TGI (MDA-N) of the same compound?
A: > 100 µM

Q: What about the TGI (SN12C renal) of the same compound?
A: > 100 µM

Q: What about the TGI (OVCAR-3 ovarian) of the same compound?
A: 9.08 µM

Q: What about the TGI (HCC-2998 colon) of the same compound?
A: 5.02 µM

Q: And the TGI (IGROV1 ovarian)?
A: 4.73 µM

Q: And the TGI (HCT-116 colon)?
A: 3.01 µM

Q: What about the TGI (SK-MEL-28 melanoma) of the same compound?
A: 12.1 µM

Q: And the TGI (A549 NSCLC)?
A: 30.4 µM

Q: And the TGI (HCT-15 colon)?
A: 29.7 µM

Q: What about the TGI (OVCAR-8 ovarian) of the same compound?
A: 6.25 µM

Q: What about the TGI (KM12 colon) of the same compound?
A: 2.81 µM

Q: What about the TGI (DU-145 prostate) of the same compound?
A: 34.6 µM

Q: And the TGI (NCI/ADR-RES ovarian)?
A: 49.5 µM

Q: What about the TGI (A498 renal) of the same compound?
A: 41.6 µM

Q: What about the TGI (SK-OV-3 ovarian) of the same compound?
A: 8.12 µM

Q: And the TGI (ACHN renal)?
A: 17.3 µM

Q: And the TGI (BT-549 breast)?
A: 23.1 µM

Q: What about the TGI (UACC-62 melanoma) of the same compound?
A: 21.5 µM

Q: What about the TGI (MDA-MB-231 breast) of the same compound?
A: 6.6 µM

Q: What about the TGI (HOP-62 NSCLC) of the same compound?
A: 8.53 µM

Q: What about the TGI (SF-295 CNS) of the same compound?
A: 8.59 µM

Q: What about the TGI (SK-MEL-5 melanoma) of the same compound?
A: 6.33 µM

Q: And the TGI (NCI-H23 lung)?
A: 4.94 µM

Q: What about the TGI (UACC-257 melanoma) of the same compound?
A: 11.7 µM

Q: What about the TGI (CCRF-CEM leukemia) of the same compound?
A: 3.79 µM

Q: What about the TGI (SNB-75 CNS) of the same compound?
A: 7.44 µM

Q: What about the TGI (K-562 leukemia) of the same compound?
A: 4.49 µM

Q: And the TGI (SF-268 CNS)?
A: 5.81 µM

Q: And the TGI (RPMI-8226 leukemia)?
A: 4.78 µM

Q: And the TGI (NCI-H226 lung)?
A: 32 µM

Q: And the TGI (HL-60(TB) leukemia)?
A: 2.81 µM

Q: And the TGI (OVCAR-5 ovarian)?
A: 16.6 µM

Q: What about the TGI (HT29 colon) of the same compound?
A: 3.05 µM

Q: And the TGI (T-47D breast)?
A: 17.5 µM

Q: What about the TGI (PC-3 prostate) of the same compound?
A: 3.93 µM

Q: What about the TGI (EKVX NSCLC) of the same compound?
A: 40.6 µM

Q: What about the TGI (TK-10 renal) of the same compound?
A: 12.5 µM

Q: What about the TGI (HOP-92 NSCLC) of the same compound?
A: 10.7 µM

Q: And the TGI (HS 578T breast)?
A: 3.39 µM

Q: What about the TGI (OVCAR-4 ovarian) of the same compound?
A: 9.15 µM

Q: And the TGI (MALME-3M melanoma)?
A: > 62.2 µM

Q: And the TGI (SR leukemia)?
A: > 100 µM

Q: What about the TGI (UO-31 renal) of the same compound?
A: 38.1 µM

Q: And the TGI (CAKI-1 renal)?
A: 27.3 µM

Q: Which results are given for `O=C1CCC[C@H]2O[C@@H](COCc3ccccc3)C[C@@H]12`?
A: TGI (MOLT-4 leukemia): > 100 µM; TGI (SF-539 CNS): > 100 µM; TGI (MDA-N): > 100 µM; TGI (786-0 renal): > 100 µM; TGI (SN12C renal): > 100 µM; TGI (OVCAR-3 ovarian): > 100 µM; TGI (M14 melanoma): > 100 µM; TGI (HCT-116 colon): > 100 µM; TGI (SK-MEL-28 melanoma): > 100 µM; TGI (A549 NSCLC): > 100 µM; TGI (MDA-MB-435): > 100 µM; TGI (HCT-15 colon): > 100 µM; TGI (OVCAR-8 ovarian): > 100 µM; TGI (KM12 colon): > 100 µM; TGI (DU-145 prostate): > 100 µM; TGI (NCI/ADR-RES ovarian): > 100 µM; TGI (SNB-19 CNS): > 100 µM; TGI (U251 CNS): > 100 µM; TGI (A498 renal): > 100 µM; TGI (SK-OV-3 ovarian): > 100 µM; TGI (ACHN renal): > 100 µM; TGI (UACC-62 melanoma): > 100 µM; TGI (SW-620 colon): > 100 µM; TGI (MDA-MB-231 breast): > 100 µM; TGI (HOP-62 NSCLC): > 100 µM; TGI (SF-295 CNS): > 100 µM; TGI (SK-MEL-5 melanoma): > 100 µM; TGI (NCI-H23 lung): > 100 µM; TGI (UACC-257 melanoma): > 100 µM; TGI (CCRF-CEM leukemia): > 100 µM; TGI (SNB-75 CNS): > 100 µM; TGI (SK-MEL-2 melanoma): > 100 µM; TGI (K-562 leukemia): > 100 µM; TGI (COLO 205 colon): > 100 µM; TGI (SF-268 CNS): > 100 µM; TGI (RPMI-8226 leukemia): > 100 µM; TGI (NCI-H226 lung): > 100 µM; TGI (HL-60(TB) leukemia): > 100 µM; TGI (OVCAR-5 ovarian): > 100 µM; TGI (HT29 colon): > 100 µM; TGI (T-47D breast): > 100 µM; TGI (NCI-H460 lung): > 100 µM; TGI (PC-3 prostate): > 100 µM; TGI (TK-10 renal): > 100 µM; TGI (MCF7 breast): > 100 µM; TGI (HOP-92 NSCLC): > 100 µM; TGI (HS 578T breast): > 100 µM; TGI (OVCAR-4 ovarian): > 100 µM; TGI (SR leukemia): > 100 µM; TGI (UO-31 renal): > 100 µM; TGI (CAKI-1 renal): > 100 µM
